According to ChEMBL document CHEMBL6153036, “Genome-informed Discovery of Monchicamides A-K: Cyanobactins from the Microcoleaceae Cyanobacterium LEGE 16532” (J Nat Prod, 2025):
Calls of active or inactive are those of the source. Where a SMILES comes first, the peptide text is derived from it. [ ]: non-standard residue; d: D form. The star is where a group is joined. ξ: configuration not given here. ξIle = CC[C@H](C)C(N)C(=O)O; Prenyl = CC(C)=CC*

Tests used:
[1] = test system: HepG2; test: Cytotoxicity against human HepG2 cells assessed as cell viability at 10 ug/mL incubated for 48 hrs by MTT assay; assay type: functional, cell-based; conditions: dose 10.0 µg/ml
[2] = test system: HCT-116; test: Cytotoxicity against human HCT-116 cells assessed as cell viability at 10 ug/mL incubated for 48 hrs by MTT assay; assay type: functional, cell-based; conditions: dose 10.0 µg/ml
[3] = test system: SH-SY5Y; test: Cytotoxicity against human SH-SY5Y cells assessed as cell viability at 10 ug/mL incubated for 48 hrs by MTT assay; assay type: functional, cell-based; conditions: dose 10.0 µg/ml
[4] = test system: Staphylococcus aureus; test: Antibacterial activity against Staphylococcus aureus ATCC 29213 assessed as bacterial growth inhibition at 1 mg/mL preincubated for 30 mins at room temperature followed by incubation at 37 degreeC for 24 hrs by agar disc-diffusion method; assay type: functional, organism-based; conditions: time 24.5 hrs
[5] = test system: Bacillus subtilis; test: Antibacterial activity against Bacillus subtilis ATCC 6633 assessed as bacterial growth inhibition at 1 mg/mL preincubated for 30 mins at room temperature followed by incubation at 37 degreeC for 24 hrs by agar disc-diffusion method; assay type: functional, organism-based; conditions: time 24.5 hrs
[6] = test system: Salmonella typhimurium; test: Antibacterial activity against Salmonella typhimurium ATCC 25241 assessed as bacterial growth inhibition at 1 mg/mL preincubated for 30 mins at room temperature followed by incubation at 37 degreeC for 24 hrs by agar disc-diffusion method; assay type: functional, organism-based; conditions: Salmonella enterica subsp. enterica serovar Typhimurium, time 24.5 hrs
[7] = test system: Candida albicans; test: Antifungal activity against Candida albicans ATCC 10231 assessed as fungal growth inhibition at 1 mg/mL preincubated for 30 mins at room temperature followed by incubation at 37 degreeC for 24 hrs by agar disc-diffusion method; assay type: functional, organism-based; conditions: time 24.5 hrs
[8] = test system: Escherichia coli; test: Antibacterial activity against Escherichia coli ATCC 25922 assessed as bacterial growth inhibition at 1 mg/mL preincubated for 30 mins at room temperature followed by incubation at 37 degreeC for 24 hrs by agar disc-diffusion method; assay type: functional, organism-based; conditions: time 24.5 hrs
[9] = test system: Acanthamoeba castellanii; test: Antiamoebic activity against Acanthamoeba castellanii assessed as cell viability at 10 uM incubated for 24 hrs by Alamar blue staining based assay; assay type: functional, organism-based
[10] = test system: Acanthamoeba polyphaga; test: Antiamoebic activity against Acanthamoeba polyphaga assessed as cell viability at 10 uM incubated for 24 hrs by Alamar blue staining based assay; assay type: functional, organism-based
[11] = test system: Dictyostelium discoideum; test: Antiamoebic activity against Dictyostelium discoideum assessed as cell viability at 10 uM incubated for 24 hrs by Alamar blue staining based assay; assay type: functional, organism-based

Measured: Activity

CC[C@H](C)C1NC(=O)[C@@H]2CCCN2C(=O)[C@H](Cc2ccc(OCC=C(C)C)cc2)NC(=O)[C@@H]2CCCN2C(=O)[C@H](C(C)C)NC(=O)CNC(=O)[C@H](C(C)C)NC(=O)CNC1=O (stereo partly specified) (cyclo(GVGVPY(Prenyl)P[ξIle]))
inactive: all assays above
